Measured values reported in US20250032625A1, “HETEROBIFUNCTIONAL MOLECULES AS TEAD INHIBITORS” (Merck Patent GmbH, priority 2021, published 2025).
Read-outs that look alike come from different tables or passages of the source.

What was measured:
[1] = molecular target: TEAD1 in SK-HEP1 cells (Homo sapiens (Human), UniProt P28347); assay: TEAD degradation in SK-HEP1 cell line (immunofluorescence); format: cell-based
Description: (§1) Degradation of TEAD isoform TEAD1 by exemplary compounds which has been determined at different time points in two different cell lines, SK-HEP1 and NCI-H226: For the assay, SK-HEP1 (ATCC HTB-52) and NCI-H226 (ATCC CRL-5826) cells were treated in duplicates with the test compounds in a 10-point dose, 1:3 dilution steps, with the top concentration starting at 30 uM (final concentration in assay). After either 16 or 24 hour incubation at 37° C., 95% rH, and 5% CO2, the cells were fixed with 4% PFA and TEAD1 levels were probed using immunofluorescence. The primary antibody used was Anti-TEF1 (BD, 610293) and the secondary antibody used was Alexa Fluor® 488 Goat Anti-Mouse IgG (H+L) (Molecular Probes, A-11001). Finally, the cell nuclei were co-stained by Hoechst 33258 (Invitrogen, H-3569) and imaged using a high content imager. The amount of TEAD degradation was determined by quantifying the fluorescence intensity levels of Anti-TEF1 in each individual cell per well. DC50 was calculated using curve fitting software Genedata Screener. Cell media: The SK-HEP1 cells were cultured in the following media: MEM, +10% FCS, +1× GlutaMAX, +100 μM NEAA, +10 mM HEPES, +0.5% Pen/Strep. The NCI-H226 cells were cultured in the following media: RPMI 1640, +10% FBS, +1× GlutaMAX, +10 mM HEPES, +0.5% Pen/Strep.

[2] = molecular target: TEAD1 in NCI-H226 cells (Homo sapiens (Human), UniProt P28347); assay: TEAD degradation in NCI-H226 cell line (immunofluorescence); format: cell-based
Description: as §1

[3] = 24 hours, ranges, read-out: DC50 SK-HEP1
[4] = 24 hours, ranges, read-out: DC50 NCI-H226
[5] = 24 h incubation, read-out: DC50 SK-HEP1 24 h
[6] = 24 h incubation, read-out: DC50 NCI-H226 24 h

Sequence of TEAD1 in SK-HEP1 cells (P28347 whole entry, canonical isoform): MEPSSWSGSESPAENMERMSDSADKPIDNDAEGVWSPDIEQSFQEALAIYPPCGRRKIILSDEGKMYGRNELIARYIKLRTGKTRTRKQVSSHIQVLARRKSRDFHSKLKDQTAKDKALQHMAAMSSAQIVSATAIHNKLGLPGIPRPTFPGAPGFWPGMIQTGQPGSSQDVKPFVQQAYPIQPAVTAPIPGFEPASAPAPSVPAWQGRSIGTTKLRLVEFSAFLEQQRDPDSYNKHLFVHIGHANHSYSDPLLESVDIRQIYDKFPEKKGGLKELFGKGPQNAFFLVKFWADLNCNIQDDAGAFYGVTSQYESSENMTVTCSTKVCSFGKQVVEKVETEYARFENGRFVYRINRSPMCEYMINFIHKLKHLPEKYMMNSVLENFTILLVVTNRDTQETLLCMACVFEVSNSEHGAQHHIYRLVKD
Sequence of TEAD1 in NCI-H226 cells (P28347 whole entry): as the sequence (P28347 whole entry, canonical isoform) above

Row | Structure (SMILES) | DC50 [1, 3] | DC50 [2, 4] | DC50 [1, 5] | DC50 [2, 6]
1 | Cc1ncsc1-c1ccc(CNC(=O)[C@@H]2C[C@@H](O)CN2C(=O)[C@@H](NC(=O)CCCCCC(=O)N(C)CCOCCOCCNC(=O)c2ccc3c(c2)c2cn(C)nc2n3-c2ccc(C(F)(F)F)cc2)C(C)(C)C)cc1 [Compound 53, N-[(2S)-1-[(2S,4R)-4-hydroxy-2-({[4-(4-methyl-1,3-thiazol-5-yl)phenyl]-methyl}carbamoyl)pyrrolidin-1-yl]-3,3-dimethyl-1-oxobutan-2-yl]-N′-methyl-N′-(2-{2-[2-({2-methyl-8-[4-(trifluoromethyl)phenyl]-2H,8H-pyrazolo[3,4-b]indol-5-yl}formamido)ethoxy]ethoxy}ethyl) heptanediamide] | 100 to 1000 nM | 100 to 1000 nM |  | 
2 | CN(CCOCCOCCOCCOCCNC(=O)c1ccc2c(c1)c1cn(C)nc1n2-c1ccc(C(F)(F)F)cc1)c1cccc2c1C(=O)N(C1CCC(=O)NC1=O)C2=O (centres unmarked) [Compound 80, N-{2-[2-(2,6-dioxopiperidin-3-yl)-1,3-dioxo-2,3-dihydro-1H-isoindol-4-yl]-5,8,11,14-tetraoxa-2-azahexadecan-16-yl}-2-methyl-8-[4-(trifluoromethyl)phenyl]-2H,8H-pyrazolo[3,4-b]indole-5-carboxamide] | < 100 nM | 100 to 1000 nM |  | 
3 | Cn1cc2c3cc(C(=O)NCCOCCOCCOCCOCCOCCOCCNc4cccc5c4C(=O)N(C4CCC(=O)NC4=O)C5=O)ccc3n(-c3ccc(C(F)(F)F)cc3)c2n1 (centres unmarked) [Compound 87, N-(20-{[2-(2,6-dioxopiperidin-3-yl)-1,3-dioxo-2,3-dihydro-1H-isoindol-4-yl]amino}-3,6,9,12,15,18-hexaoxaicosan-1-yl)-2-methyl-8-[4-(trifluoromethyl)phenyl]-2H,8H-pyrazolo[3,4-b]indole-5-carboxamide] | < 100 nM | < 100 nM |  | 
4 | Cc1ncsc1-c1ccc(CNC(=O)[C@@H]2C[C@@H](O)CN2C(=O)[C@@H](NC(=O)CCCCCc2cn(CCCCCCCNC(=O)c3ccc4c(c3)c3cn(C)nc3n4-c3ccc(C(F)(F)F)cc3)nn2)C(C)(C)C)cc1 [Compound 34, (2S,4R)-1-[(2S)-3,3-dimethyl-2-(6-{1-[7-({2-methyl-8-[4-(trifluoromethyl)phenyl]-2H,8H-pyrazolo[3,4-b]indol-5-yl}formamido)heptyl]-1H-1,2,3-triazol-4-yl}hexanamido)butanoyl]-4-hydroxy-N-{[4-(4-methyl-1,3-thiazol-5-yl)phenyl]methyl}pyrrolidine-2-carboxamide] | 100 to 1000 nM | 100 to 1000 nM |  | 
5 | CCNC(=O)[C@H](Cc1ccccc1)NC(=O)[C@@H]1CCCN1C(=O)[C@@H](NC(=O)[C@H](C)NCCCCCCNC(=O)c1ccc2c(c1)c1cn(C)nc1n2-c1ccc(C(F)(F)F)cc1)C1CCCCC1 [Compound 73, (2S)-2-{[(2S)-1-[(2S)-2-cyclohexyl-2-[(2S)-2-{[6-({2-methyl-8-[4-(trifluoro-methyl)phenyl]-2H,8H-pyrazolo[3,4-b]indol-5-yl}formamido)hexyl]amino}-propanamido]acetyl]pyrrolidin-2-yl]formamido}-N-ethyl-3-phenylpropan-amide] | 3000 to 9000 nM | 9000 to 30000 nM |  | 
6 | Cn1cc2c3cc(C(=O)NCCOCCOCCOCCOCCOc4cccc5c4C(=O)N(C4CCC(=O)NC4=O)C5=O)ccc3n(-c3ccc(C(F)(F)F)cc3)c2n1 (centres unmarked) [Compound 16, N-(14-{[2-(2,6-dioxopiperidin-3-yl)-1,3-dioxo-2,3-dihydro-1H-isoindol-4-yl]oxy}-3,6,9,12-tetraoxatetradecan-1-yl)-2-methyl-8-[4-(trifluoromethyl)phenyl]-2H,8H-pyrazolo[3,4-b]indole-5-carboxamide] | 100 to 1000 nM | 100 to 1000 nM | 250 nM | 600 nM
7 | Cc1ccc2c(c1)c1cc(C(=O)NCCOCCOCCOCCOCCNc3cccc4c3C(=O)N(C3CCC(=O)NC3=O)C4=O)ccc1n2-c1ccc(C(F)(F)F)cc1 (centres unmarked) [Compound 46, N-(14-{[2-(2,6-dioxopiperidin-3-yl)-1,3-dioxo-2,3-dihydro-1H-isoindol-4-yl]amino}-3,6,9,12-tetraoxatetradecan-1-yl)-6-methyl-9-[4-(trifluoro-methyl)phenyl]-9H-carbazole-3-carboxamide] | 100 to 1000 nM | 100 to 1000 nM |  | 
8 | Cc1ncsc1-c1ccc(CNC(=O)[C@@H]2C[C@@H](O)CN2C(=O)[C@@H](NC(=O)CCOCCC(=O)NCCOCCOCCNC(=O)c2ccc3c(c2)c2cn(C)nc2n3-c2ccc(C(F)(F)F)cc2)C(C)(C)C)cc1 [Compound 61, (2S,4R)-1-[(2S)-3,3-dimethyl-2-(3-{2-[(2-{2-[2-({2-methyl-8-[4-(trifluoro-methyl)phenyl]-2H,8H-pyrazolo[3,4-b]indol-5-yl}formamido)-ethoxy]ethoxy}ethyl)carbamoyl]ethoxy}propanamido)butanoyl]-4-hydroxy-N-{[4-(4-methyl-1,3-thiazol-5-yl)phenyl]methyl}pyrrolidine-2-carboxamide] | 3000 to 9000 nM | 3000 to 9000 nM |  | 
9 | Cn1cc2c3cc(C(=O)NCC#Cc4ccc(N5CCN(CCCC(=O)Nc6ccc7c(c6)CN(C6CCC(=O)NC6=O)C7=O)CC5)nc4)ccc3n(-c3ccc(C(F)(F)F)cc3)c2n1 (centres unmarked) [Compound 19, N-(3-{6-[4-(3-{[2-(2,6-dioxopiperidin-3-yl)-1-oxo-2,3-dihydro-1H-isoindol-5-yl]carbamoyl}propyl)piperazin-1-yl]pyridin-3-yl}prop-2-yn-1-yl)-2-methyl-8-[4-(trifluoromethyl)phenyl]-2H,8H-pyrazolo[3,4-b]indole-5-carboxamide] | < 100 nM | < 100 nM | 40 nM | 70 nM
10 | Cn1cc2c3cc(C(=O)NCCOCCOCCNC(=O)COc4ccc5c(c4)C(=O)N(C4CCC(=O)NC4=O)C5=O)ccc3n(-c3ccc(C(F)(F)F)cc3)c2n1 (centres unmarked) [Compound 7, 2-{[2-(2,6-dioxopiperidin-3-yl)-1,3-dioxo-2,3-dihydro-1H-isoindol-5-yl]oxy}-N-(2-{2-[2-({2-methyl-8-[4-(trifluoromethyl)phenyl]-2H,8H-pyrazolo[3,4-b]indol-5-yl}formamido)ethoxy]ethoxy}ethyl)acetamide] | 1000 to 3000 nM | 9000 to 30000 nM | 2400 nM | 20000 nM
11 | Cc1ncsc1-c1ccc(CNC(=O)[C@@H]2C[C@@H](O)CN2C(=O)[C@@H](NC(=O)COCCOCCOCCNC(=O)c2ccc3c(c2)c2cn(C)nc2n3-c2ccc(C(F)(F)F)cc2)C(C)(C)C)cc1 [Compound 52] | 100 to 1000 nM | 100 to 1000 nM |  | 
12 | Cn1nc2c3cc(C(=O)NCCOCCOCCOCCOCCNc4cccc5c4C(=O)N(C4CCC(=O)NC4=O)C5=O)ccc3n(-c3ccc(C(F)(F)F)cc3)c2n1 (centres unmarked) [Compound 45, N-(14-{[2-(2,6-dioxopiperidin-3-yl)-1,3-dioxo-2,3-dihydro-1H-isoindol-4-yl]amino}-3,6,9,12-tetraoxatetradecan-1-yl)-2-methyl-4-[4-(trifluoromethyl)phenyl]-2H,4H-[1,2,3]triazolo[4,5-b]indole-7-carboxamide] | 100 to 1000 nM | < 100 nM |  | 
13 | Cn1cc2c3cc(C(=O)NCCOCCOCCOCCOCCNC(=O)COc4ccc5c(c4)CCCN5C(=O)CCl)ccc3n(-c3ccc(C(F)(F)F)cc3)c2n1 [Compound 31, 2-{[1-(2-chloroacetyl)-1,2,3,4-tetrahydroquinolin-6-yl]oxy}-N-[14-({2-methyl-8-[4-(trifluoromethyl)phenyl]-2H,8H-pyrazolo[3,4-b]indol-5-yl}formamido)-3,6,9,12-tetraoxatetradecan-1-yl]acetamide] | 3000 to 9000 nM | 9000 to 30000 nM | 3500 nM | 10000 nM
14 | Cn1cc2c3cc(C(=O)NCCOCCOCCOCCOCCOCC(=O)Nc4cccc5c4C(=O)N(C4CCC(=O)NC4=O)C5=O)ccc3n(-c3ccc(C(F)(F)F)cc3)c2n1 (centres unmarked) [Compound 10, N-[2-(2,6-dioxopiperidin-3-yl)-1,3-dioxo-2,3-dihydro-1H-isoindol-4-yl]-17-({2-methyl-8-[4-(trifluoromethyl)phenyl]-2H,8H-pyrazolo[3,4-b]indol-5-yl}formamido)-3,6,9,12,15-pentaoxaheptadecanamide] |  | 1000 to 3000 nM |  | 20000 nM
15 | Cc1ncsc1-c1ccc(CNC(=O)[C@@H]2C[C@@H](O)CN2C(=O)[C@@H](NC(=O)CCCCCCOCCNC(=O)c2ccc3c(c2)c2cn(C)nc2n3-c2ccc(C(F)(F)F)cc2)C(C)(C)C)cc1 [Compound 77, (2S,4R)-1-[(2S)-3,3-dimethyl-2-{7-[2-({2-methyl-8-[4-(trifluoromethyl)-phenyl]-2H,8H-pyrazolo[3,4-b]indol-5-yl}formamido)ethoxy]heptanamido}-butanoyl]-4-hydroxy-N-{[4-(4-methyl-1,3-thiazol-5-yl)phenyl]methyl}-pyrrolidine-2-carboxamide] | 100 to 1000 nM |  |  | 
16 | Cn1cc2c3cc(C(=O)NCCOCCOCCNC(=O)CCCCCCNc4cccc5c4CN(C4CCC(=O)NC4=O)C5=O)ccc3n(-c3ccc(C(F)(F)F)cc3)c2n1 (centres unmarked) [Compound 15, 7-{[2-(2,6-dioxopiperidin-3-yl)-1-oxo-2,3-dihydro-1H-isoindol-4-yl]amino}-N-(2-{2-[2-({2-methyl-8-[4-(trifluoromethyl)phenyl]-2H,8H-pyrazolo[3,4-b]indol-5-yl}formamido)ethoxy]ethoxy}ethyl) heptanamide] |  | 1000 to 3000 nM |  | 
